The target in assay [1] is rBIIa/beta 1 sodium channels expressed in Xenopus oocytes (Rattus norvegicus, UniProt P04775). Nature of the assay: Electrophysiological Assay 2: two-electrode voltage clamp in Xenopus oocytes. It counts as cell-based. To be noted: apparent Ki for the inactivated state from single point inhibition data, read-out: RBIIA/β1 Ki. Here is the method: Electrophysiological Assay 2 was used to measure potencies of compounds of the present invention rBIIa/beta 1 sodium channels expressed in Xenopus oocytes.
Preparation of cRNA encoding cloned rat brain type IIa (rBIIa) and beta 1 (β1): cDNA clones encoding the rat brain beta 1 subunit were cloned in house using standard methods, and mRNA were prepared by standard methods. mRNA encoding rBIIa was provided by Dr. A. Golden (UC Irvine). The mRNAs were diluted and stored at −80° C. in 1 μL aliquots until injection.
Preparation of oocytes: Mature female Xenopus laevis were anaesthetized (20-40 min) using 0.15% 3-aminobenzoic acid ethyl ester (MS-222) following established procedures (Woodward, R. M., et al., Mol. Pharmacol. 41:89-103 (1992)).
Two to six ovarian lobes were surgically removed. Oocytes at developmental stages V-VI were dissected from the ovary, oocytes were still surrounded by enveloping ovarian tissues. Oocytes were defolliculated on the day of surgery by treatment with collagenase (0.5 mg/mL Sigma Type I, or Boehringer Mannheim Type A, for 0.5-1 hr). Treated oocytes were vortexed to dislodge epithelia, washed repeatedly and stored in Barth's medium containing 88 mM NaCl, 1 mM KCl, 0.41 mM CaCl2, 0.33 mM Ca(NO3)2, 0.82 mM MgSO4, 2.4 mM NaHCO3, 5 mM HEPES, pH 7.4 adjusted with 0.1 mg/mL gentamycin sulphate.
Micro-injection of oocytes: Defolliculated oocytes were micro-injected using a Nanoject injection system (Drummond Scientific Co., Broomall, Pa.). Injection pipettes were beveled to minimize clogging. Tip diameter of injection pipettes was 15-35 μm. Oocytes were microinjected with approximately 50 nL 1:10 ratio mixtures of cRNAs for rBIIa and beta 1 respectively.
Electrophysiology: Membrane current responses were recorded in frog Ringer solution containing 115 mM NaCl, 2 mM KCl, 1.8 mM CaCl2, 5 mM HEPES, pH 7.4. Electrical recordings were made using a conventional two-electrode voltage clamp (Dagan TEV-200) over periods ranging between 1-7 days following injection. The recording chamber was a simple gravity fed flow-through chamber (volume […] depending on adjustment of aspirator). Oocytes were placed in the recording chamber, impaled with electrodes and continuously perfused (5-15 mL min^−1) with frog Ringer's solution. The tested compounds were applied by bath perfusion.
Voltage protocols for evoking sodium channel currents: The standard holding potential for whole oocyte clamp was −120 mV. Standard current-voltage relationships were elicited by 40 ms depolarizing steps starting from −60 mV to +50 mV in 10 mV increments. Peak currents were measured as the maximum negative current after depolarizing voltage steps. The voltage from maximum current response was noted and used for the next voltage protocol.
The purpose was to find compounds that are state dependent modifiers of neuronal sodium channels. Preferably, the compounds have a low affinity for the rested/closed state of the channel, but a high affinity for the inactivated state. The following voltage protocol was used to measure a compounds affinity for the inactivated state. Oocytes were held at a holding potential of −120 mV. At this membrane voltage, nearly all of the channels would be in the closed state. Then a 4 second depolarization was made to the voltage where the maximum current was elicited. At the end of this depolarization, nearly all the channels would be in the inactivated state. A 10 ms hyperpolarizing step was then made in order to remove some channels from the incativated state. A final depolarizing test pulse was used to assay the sodium current after this prolonged depolarization (see analysis below). Sodium currents were measured at this test pulse before and after the application of the tested compound. Data was acquired using pClamp 8.0 software and analyzed with clampfit software (Axon instruments). […]
In general terms: In two-electrode clamp one electrode senses voltage and the other passes current.

The subject of assay [2] is maximal electroshock-induced seizures (MES). Nature of the assay: Maximum electroshock seizure test (MES), anticonvulsant evaluation. Type of assay: in vivo. To be noted: Mus musculus, mice. The text has this: The compounds of the present invention may be tested for in vivo anticonvulsant activity after i.v., p.o. or i.p. injection using a number of anticonvulsant tests in mice, including the maximum electroshock seizure test (MES). Maximum electroshock seizures were induced in male NSA mice weighing between 15-20 g and male Sprague-Dawley rats weighing between 200-225 g by application of current (50 mA, 60 pulses/sec, 0.8 msec pulse width, 1 sec duration, D.C., mice; 99 mA, 125 pulses/sec, 0.8 msec pulse width, 2 sec duration, D.C., rats) using a Ugo Basile ECT device (Model 7801). Mice were restrained by gripping the loose skin on their dorsal surface and saline-coated corneal electrodes were held lightly against the two corneae. Rats were allowed free movement on the bench top and ear-clip electrodes were used. […] A tonic seizure was defined as a hindlimb extension in excess of 90 degrees from the plane of the body. Results were treated in a quantal manner.
The ability of 4-[4-(4-fluorophenoxy)phenyl]-pyrimidine-2-carboxamide to block maximal electroshock-induced seizures (MES) was determined according to the method above.
4-[4-(4-Fluorophenoxy)phenyl]-pyrimidine-2-carboxamide was administered p.o. to mice 30 minutes before the test procedure.
The following compounds on Table 1 were tested accordingly after a p.o. administration and also after an i.v. injection. The compounds were injected i.v. 15 minutes before the test procedure.

The mark [3] stands for this setting: iv, i.v. injection 15 minutes before the test, read-out: MES i.v. ED50.
Where [4] appears, read: po, p.o., 30 minutes before the test, ED50 = dose protecting 50% of animals, read-out: MES p.o. ED50.

Structures can show the parent of a compound that is named as a salt. Where two headings read alike, the source gives them in different places.

As for “4-[4-(4-fluorophenoxy)phenyl]pyrimidine-2-carbamate”, the Ki in assay [1] was 8.7 µM.

As to `O=C(c1nccc(-c2ccc(Oc3ccc(F)cc3)cc2)n1)C(Br)Br` [1-[4-[4-(4-fluorophenoxy)phenyl]pyrimidine-2-yl]-2,2-dibromoethanone], the Ki in assay [1] is 10.6 µM.

Consider `CN(C)C(=O)c1cc(N(C)C)nc(-c2ccc(Oc3ccccc3)cc2)n1` [2-(4-phenoxyphenyl)-6-(dimethylamino)pyrimidine-4-carboxylic acid dimethylamide], for which the ED50 (usually the dose at which the effect has come halfway, by size or by number of responders) in assay [2] (setting [3]) was 2.1 mg/kg.

Turning to `Fc1ccc(Oc2ccc(-c3ccnc(-c4ccno4)n3)cc2)cc1` [2-(5-isoxazolyl)-4-[4-(4-fluorophenoxy)phenyl]pyrimidine], the Ki in assay [1] was determined as 2.63 µM.

Take `Fc1ccc(Oc2ccc(-c3ccnc(-c4nc[nH]n4)n3)cc2)cc1` [2-[3-(1,2,4-triazolyl)]-4-[4-(4-fluorophenoxy)phenyl]pyrimidine]: the Ki in assay [1] stood at 5.91 µM.

For `CN(C)C=NC(=O)c1ccnc(-c2ccc(Oc3ccc(Cl)cc3F)cc2)n1` [2-[4-(4-chloro-2-fluorophenoxy)phenyl]pyrimidine-4-carboxylic acid dimethylaminomethyleneamide], the median effective dose (ED50) in assay [2] (setting [3]) worked out at 1.5 mg/kg; in assay [2] (setting [4]), 4.1 mg/kg.

With `COC(=O)c1ccnc(-c2ccc(Oc3ccc(F)cc3)cc2)n1` [2-[4-(4-fluorophenoxy)phenyl]pyrimidine-4-carboxylic acid methyl ester], the Ki in assay [1] turned out to be 71.5 µM.

As for `CN(C)c1nccc(-c2ccc(Oc3ccc(F)cc3)cc2)n1` [2-dimethylamino-4-[4-(4-fluorophenoxy)phenyl]pyrimidine], the Ki in assay [1] was found to be 27.6 µM.

With `Cc1nc(-c2ccc(Oc3ccc(F)cc3)cc2)ccc1C(N)=O` [2-methyl-6-[4-(4-fluorophenoxy)phenyl]pyridine-3-carboxamide], in assay [1], the Ki was 8.45 µM.

For the compound `COC(=O)c1nccc(-c2ccc(Oc3ccc(F)cc3F)cc2)n1` [4-[4-(2,4-difluorophenoxy)phenyl]pyrimidine-2-carboxylic acid methyl ester], the Ki in assay [1] is 139 µM.

For `CCOC(=O)c1nccc(-c2ccc(Oc3ccc(F)cc3)cc2)n1` [4-[4-(4-Fluorophenoxy)phenyl]-pyrimidine-2-carboxylic acid ethyl ester], the Ki in assay [1] is 9.86 µM.

For `CNC(=O)c1nccc(-c2ccc(Oc3ccc(F)cc3)cc2)n1` [4-[4-(4-Fluorophenoxy)phenyl]-pyrimidine-2-carboxylic acid methylamide], the ED50 in assay [2] (setting [3]) is 2.8 mg/kg; in assay [2] (setting [4]), 6.1 mg/kg.

Consider `NC(=O)c1nccc(-c2ccc(Oc3ccc([N+](=O)[O-])cc3)cc2)n1` [4-[4-(4-Nitrophenoxy)phenyl]-pyrimidine-2-carboxamide], for which, in assay [1], the Ki turned out to be 1.13 µM. Besides, the median effective dose (ED50) in assay [2] (setting [3]) came to 3.1 mg/kg; in assay [2] (setting [4]) it was 10 mg/kg.

`O=C(NCCCl)c1nccc(-c2ccc(Oc3ccc(F)cc3)cc2)n1` [4-[4-(4-fluorophenoxy)phenyl]pyrimidine-2-carboxylic acid 2-chloroethylamide]: the Ki in assay [1] worked out at 2.62 µM.

As to `O=CNC(=O)c1nccc(-c2ccc(Oc3ccc(F)cc3)cc2)n1` [4-[4-(4-fluorophenoxy)phenyl]pyrimidine-2-carboxylic acid hydroxymethyleneamide], in assay [1], the Ki turned out to be 3.53 µM. For the same compound, the 50% effective dose (ED50) came out at 1.5 mg/kg in assay [2] (setting [3]) and 5 mg/kg in assay [2] (setting [4]).

For `CNC=NC(=O)c1nccc(-c2ccc(Oc3ccc(F)cc3)cc2)n1` [4-[4-(4-fluorophenoxy)phenyl]pyrimidine-2-carboxylic acid methylaminomethyleneamide hydrochloride], in assay [1], the Ki amounted to 11.4 µM.

Consider `N#Cc1ccc(C(N)=O)nc1-c1ccc(Oc2ccccc2)cc1` [5-cyano-6-(4-phenoxyphenyl)pyridine-2-carboxamide], for which the Ki in assay [1] was determined as 11.9 µM.

With `NC(=O)c1ccc(O)c(-c2ccc(Oc3ccccc3)cc2)n1` [5-hydroxy-6-(4-phenoxyphenyl)pyridine-2-carboxamide], the Ki in assay [1] was found to be 99.3 µM.

Take `NC(=O)c1ccc(-c2ccc(Oc3ccc(F)cc3)cc2)nc1C(N)=O` [6-[4-(4-fluorophenoxy)phenyl]pyridine-2,3-dicarboxamide]: the Ki in assay [1] was found to be 4.54 µM.

Take `O=C(NCCN1CCCCC1)c1cccc(-c2ccc(Oc3ccc(F)cc3)cc2)n1` [Compound 3, 6-[4-(4-fluorophenoxy)Phenyl]Pyridine Carboxylic Acid N-piperidinylethylamide]: the Ki in assay [1] stood at 0.06 µM.

In the case of `CC(C)(C)c1ccc(-c2cccc(C(N)=O)n2)cc1` [Compound 8a, 6-(4-tert-butylphenyl)pyridine-2-carboxamide], the Ki in assay [1] came out at 6.13 µM.

Take `CCCCc1ccc(-c2cccc(C(N)=O)n2)cc1` [Compound 8b, 6-(4-n-butylphenyl)pyridine-2-carboxamide]: the Ki in assay [1] came out at 10.5 µM.

With `CC(C)c1ccc(-c2cccc(C(N)=O)n2)cc1` [Compound 8c, 6-(4-i-propylphenyl)pyridine-2-carboxamide], in assay [1], the Ki is 41.6 µM.

Regarding `CSc1ccc(-c2cccc(C(N)=O)n2)cc1` [Compound 8d, 6-(4-thiomethylphenyl)pyridine-2-carboxamide], in assay [1], the Ki is 52.7 µM.

As for `CCOc1ccc(-c2cccc(C(N)=O)n2)cc1` [Compound 8e, 6-(4-ethoxyphenyl)pyridine-2-carboxamide], the Ki in assay [1] was found to be 58.7 µM.

With `COc1ccc(-c2cccc(C(N)=O)n2)cc1` [Compound 8f, 6-(4-methoxyphenyl)pyridine-2-carboxamide], in assay [1], the Ki turned out to be 23.9 µM.

Turning to `Cc1cc(N(C)C)cc(-c2ccc(Oc3ccc(F)cc3)cc2)n1` [Compound 14, 2-Methyl-4-dimethylamino-6-[4-(4-fluorophenoxy)phenyl]pyridine], the Ki in assay [1] was 0.33 µM.

Take `COc1cc(C(N)=O)nc(-c2ccc(Oc3ccc(F)cc3)cc2)c1` [Compound 18, 4-Methoxy-6-[4-(4-fluorophenoxy)phenyl]pyridine-2-carboxamide]: the Ki in assay [1] is 3.43 µM.

Consider `COc1cc(C(=O)NCCN(C)C)nc(-c2ccc(Oc3ccc(F)cc3)cc2)c1` [Compound 19, 4-Methoxy-6-[4-(4-fluorophenoxy)phenyl]pyridine-2-carboxylic acid dimethylaminoethylamide], for which, in assay [1], the Ki stood at 0.32 µM.

The values above are taken from US6867210B2, “Aryl substituted pyrimidines” (Euro-Celtique S.A., priority 2000, dated 2005).
